Measured values published in patent US20240262844A1, “PYRIDINIUM SALTS AND METHODS OF USE” (UNIVERSITY OF WYOMING, priority 2023, published 2024).
Values joined by “and” are separate entries in the source; they are usually repeats but may differ in a detail not shown here. Equal entries are not always repeated. “Also recorded” adds a separate entry of the source. Structures can show the parent of a compound that is named as a salt.

Legend:
HEK293T lysates = experiment: Chemoproteomic profiling of HEK293T lysates (protein-level enrichment); type: biochemical, Human; conditions: for proteome labeling profile, streptavidin-HRP Western blot of elution profiles: 0-100 μM probe, with and without irradiation, before digestion; for number of proteins identified (from ≥2 unique peptides) with ≥2-fold enrichment versus DMSO: about 100 μM probe, 60 min incubation, 20 min irradiation (302 nm 1a, 320 nm 1b, 440 nm 2b)
Method: In lysate tryptophan probe treatment for protein-level characterization: HEK293T cell pellets were suspended in native lysis buffer (50 mM HEPES pH 7.5, 150 mM sodium chloride (NaCl), 1.5 mM MgCl2, 1 mM DTT, 0.8% NP-40, 5% glycerol, and 1x protease inhibitors (Thermo)) at 2x the pellet volume. The samples were sonicated on ice for 30 seconds at 20% amplitude with a 2 second pulse ON and 3 second pulse OFF. Cell debris was removed by centrifugation at 20,000×g for 20 minutes at 4° C. Protein concentration was determined by bicinchoninic acid (BCA) (Pierce) and diluted down to 5 mg/mL with ChemProt buffer (50 mM HEPES pH 7.5, 150 mM NaCl, 1.5 mM MgCl2, 1 mM DTT, 0.4% NP-40, and 1x protease inhibitors (Thermo). 5 mg cell lysates were treated with 100x stocks of the tryptophan probes (pyridinium salts 1a, 1b, and 2b) to generate final concentrations (0, 1, 10, and 100 μM) in 1% DMSO. Lysates were incubated for 1 hour at 4° C. followed by photo-activation at respective wavelengths for 20 minutes at 4° C. Excess probe was removed using Sephadex G-25 PD-10 desalting columns (GE Healthcare) pre-equilibrated with 50 mM HEPES pH 7.5, 150 mM NaCl, 1.5 mM MgCl2, and 0.4% NP-40. The samples were then treated with 100 μL Neutravidin resin as a 50% slurry (Peirce). The samples were incubated overnight on a rotating apparatus at R.T. The following day, the beads were transferred to a MobiCol column (Boca Scientific), washed 3× with phosphate buffered saline (PBS) containing 0.2% SDS, washed 3x with PBS, and the enriched proteins were eluted with 2×NuPAGE lithium dodecyl sulfate (LDS) containing 10 mM DTT (Pierce) and heated for 30 minutes at 55° C. The eluent was collected and subsequently treated with 20 mM iodoacetamide (Pierce) for 30 minutes at R.T. protected from light. Samples were passed through detergent removal columns (Pierce) that were pre-equilibrated with 50 mM HEPES pH 8.0. The samples were treated with 2.5 μg Trypsin/LysC (Promega) at 37° C. for 16 hours. The following day, the sample was collected and prepped for isobaric labeling with TMT reagents (Thermo) as specified by the manufacturer.
Quantitative proteomics by two-dimensional nano liquid chromatography-tandem mass spectrometry (nLC-MS/MS): For protein-level characterization, the TMT-labeled sample were reconstituted in 0.1% formic acid (FA)/2% acetonitrile for offline high-pH reversed phase separation (RP10) using a Dionex UltiMate 3000 high-performance liquid chromatography (HPLC) system with fraction collection using Chromeleon v.6.8 (Thermo) software. Separation was achieved on a Waters Xbridge C18 3.5 μm 2.1×150 mm HPLC column (Waters) using a flow rate of 250 μL min-1 and the following ternary gradient and conditions: mobile phase A=water (HPLC grade), mobile phase B=acetonitrile (HPLC grade), and mobile phase C=200 mM ammonium acetate, pH 10. Mobile phase C is held at 10% throughout gradient. Starting conditions are 89% mobile phase A and 1% mobile phase B, ramping mobile phase B to 80% over 65 min. Fractions were collected in 96-well plates at 100 see per well. Fractions were reduced down to 12 fractions, dried, and reconstituted in 0.1% FA/2% acetonitrile for nLC-MS/MS. All data were acquired using a Orbitrap Fusion Lumos coupled to an Easy-nLC 1200 nanoflow liquid chromatograph operating at 300 nL min^−1. Peptides were cleaned up using a 1 cm online custom trap then eluted on a custom 20 cm laser pulled 75 μm column with C18 resin. Peptides were quantified using the synchronous precursor selection (SPS-MS3) or HCD method for TMT quantitation with 120k MS1 resolving power, 50 ms max injection time and 100% AGC. MS2 spectra were selected using the top ten most abundant features with a charge state between 2-6 using CID (collision induced dissociation) in the ion trap. The AGC was set to 100% with an isolation width of 0.7. MS3 was performed on the top 10 most abundant MS2 features between 400-1600 amu with a collision energy of 55%, AGC of 250%, and 50k resolution. […]

lysozyme (14.3 kDa) = target: T1, lysozyme (14.3 kDa) (Gallus gallus, UniProt P00698); experiment: Photochemical labeling of lysozyme (LC/MS); type: biochemical, chicken; conditions: 500 μM pyridinium salt 2c, 300 μM glutathione
T1 construct: Lysozyme (from chicken egg white, >40,000 units/mg of protein); purchased Sigma Aldrich; host or cells: chicken egg white
T1 sequence (P00698 19-147): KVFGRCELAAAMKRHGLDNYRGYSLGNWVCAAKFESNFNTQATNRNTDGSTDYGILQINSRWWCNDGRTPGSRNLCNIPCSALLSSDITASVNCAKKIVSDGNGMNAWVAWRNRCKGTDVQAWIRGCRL
Method: General Procedure B: Photochemical Irradiation of Peptides and Proteins: To a 2 mL Pyrex LC/MS vial (Thermo model #03-391-39) were sequentially added solutions containing the desired biomolecule, glutathione (GSH), pyridinium salt, and ammonium acetate (NH4OAc). The resulting solution was diluted to a final volume of 500 μL and then sparged using nitrogen for a minimum of 30 minutes prior to irradiation. The actively sparging solution was then placed in an EvoluChem™ PhotoRedOx Box photoreactor that was equipped with a Kessil, PR160 427 nm LED Lamp and was then irradiated (100% lamp intensity) for the designated time at room temperature while maintaining active sparging. The resultant reaction mixture was then analyzed directly by LC/MS. Analysis of labeling outcomes using LC/MS was performed either by extracted ion chromatogram intensities (method A) or by integrating the area under the peaks associated with peptide content (method B). These values were totaled, and estimated percentages were assigned according to relative intensities of peaks or ion counts.
Labeling of Lysozyme with Pyridinium Salt 2a (Lysozyme-2a Conjugate). Labeling of lysozyme (14.3 kDa) with the pyridinium salt 2a was performed by following general procedure B using the following solutions: lysozyme (27 μL, 182 μM, 10 μM final concentration), pyridinium salt 2a (200 μL, 500 μM, 200 μM final concentration), NH4+OAc (100 μL, 100 mM, pH=6.9, 20 mM final concentration), glutathione (15 μL, 10 mM, 300 μM final concentration), and water (158 μL) with a 100% intensity irradiation time of 60 minutes. The reaction mixture was analyzed directly by LC/MS using method A and was estimated to have proceeded in >95% conversion and a 10.9:1 mono:di labeled ratio and 10% glutathionylation of all unlabeled and labeled protein content was observed.
Labeling of Lysozyme with Pyridinium Salt 2b (Lysozyme-2b Conjugate). Labeling of lysozyme (14.3 kDa) with the pyridinium salt 2b was performed by following general procedure B using the following solutions: lysozyme (19 μL, 262 μM, 10 μM final concentration), 2b (181 μL, 554 μM, 200 μM final concentration), NH4OAc (50 μL, 200 mM, pH=6.9, 20 mM final concentration), glutathione (50 μL, 3 mM, 300 μM final concentration), and water (200 μL) with a 100% intensity irradiation time of 10 minutes. The reaction mixture was analyzed directly by LC/MS using method A and was estimated to have proceeded with 83% conversion. Partial oxidation at biotin obfuscated estimation of both oxidation and glutathionylation. Lysozyme-2b conjugate (retention time (Tr)=2.80-5.17 min).
Labeling of Lysozyme with Pyridinium Salt 2c (Lysozyme-2c Conjugate). Labeling of lysozyme (14.3 kDa) with the pyridinium salt 2c was performed by following general procedure B using the following solutions: lysozyme (19 μL, 262 μM, 10 μM final concentration), pyridinium salt 2c(367 μL, 680 μM, 500 μM final concentration), NH4OAc (50 μL, 200 mM, pH=6.9, 20 mM final concentration), glutathione (50 μL, 3 mM, 300 μM final concentration), and water (14 μL) with a 100% intensity irradiation time of 10 minutes. The reaction mixture was analyzed directly by LC/MS using method A and was estimated to have proceeded with 85% conversion and a 3.7:1 mono:di labeled ratio and 10% glutathionylation of all protein content was observed. Lysozyme-2c conjugate (retention time (Tr)=3.11-5.07 min).
Labeling of Lysozyme with Pyridinium Salt 2d (Lysozyme-2d Conjugate). Labeling of lysozyme (14.3 kDa) with the pyridinium salt 2d was performed by following general procedure B using the following solutions: Lysozyme (16.8 μL, 0.297 mM solution in H2O, final concentration […]), pyridinium salt 2d (91.8 μL, 1.09 mM solution in CH3CN/H2O (2:3), final concentration 200 μM), NH4OAc (50 μL, 200 mM in H2O, final concentration 20 mM, pH 6.9), glutathione (15 μL, 10 mMsolution in H2O, final concentration 300 μM), and water (326.4 μL) with a 100% intensity irradiation time of 20 minutes. […]

[1] = Water solubility of salt forms; type: physicochemical; conditions: trifluoroacetate salt compared to the tetrafluoroborate salt
Method: Pyridinium salt 2c was synthesized by adapting general procedure A as follows: To a flame dried round-bottom flask equipped with a stir bar was added 4-(6-methoxynaphthalen-2-yl)-2,6-dimethylpyrylium tetrafluoroborate (S2) (80 mg, 0.23 mmol), 6-((4R,5S)-5-methyl-2-oxoimidazolidin-4-yl)hexyl 1-methylhydrazine-1-carboxylate S6 (110 mg, 0.404 mmol), and ethanol (1.2 mL) and stirred for 24 hours at 60° C. The reaction mixture was then concentrated using a rotary evaporator. The resulting residue was dissolved in dichloromethane and washed with 10% fluoroboric acid (HBF4, aqueous) (2×10 mL), saturated NaBF4 (aqueous) (2×10 mL), dried over […], filtered, and concentrated using a rotary evaporator. The resulting green solid was then sonicated in hexanes followed by decanting of the supernatant. This procedure was repeated 5 times and the resulting solid was dried under vacuum to obtain the tetrafluoroborate salt of 2c as a green solid (119 mg, 76%). The tetrafluoroborate salt of 2c was further purified by HPLC using general method B to yield the trifluoroacetate (X=TFA, CF3CO2^−) salt of 2c.

conversion (lysozyme (14.3 kDa); 10 μM lysozyme, 20 mM NH4OAc pH 6.9, 427 nm, 10 minutes, trifluoroacetate)	glutathionylation of all protein content (lysozyme (14.3 kDa); 10 minutes irradiation) [%]	water solubility [1]	SMILES	proteome labeling profile, streptavidin-HRP Western blot of elution profiles (HEK293T lysates)	number of proteins identified (from ≥2 unique peptides) with ≥2-fold enrichment versus DMSO (HEK293T lysates) [proteins]
			Cc1cc(-c2ccccc2)cc(C)[n+]1N(C)C(=O)OCCCCC[C@@H]1SC[C@@H]2NC(=O)N[C@@H]21 [Pyridinium salt 1b, 2,6-dimethyl-1-(methyl(((5-((3aS,4S,6aR)-2-oxohexahydro-1H-thieno[3,4-d]imidazole-4-yl)pentyl)oxy)carbonyl)amino)-4-phenylpyridin-1-ium tetrafluoroborate]	concentration and optically dependent proteome labeling profiles; also recorded: dose-response profiles	365
			Cc1cc(C)[n+](N(C)C(=O)OCCCCC[C@@H]2SC[C@@H]3NC(=O)N[C@@H]32)c(C)c1 [Pyridinium salt 1a, 2,4,6-trimethyl-1-(methyl(((5-((3aS,4S,6aR)-2-oxohexahydro-1H-thieno[3,4-d]imidazol-4-yl)pentyl)oxy)carbonyl)amino)pyridin-1-ium tetrafluoroborate]	concentration and optically dependent proteome labeling profiles; also recorded: loss of signal	185
85% and 86%	10	superior water solubility	COc1ccc2cc(-c3cc(C)[n+](N(C)C(=O)OCCCCCC[C@H]4NC(=O)N[C@H]4C)c(C)c3)ccc2c1 [Pyridinium salt 2c, 4-(6-methoxynaphthalen-2-yl)-2,6-dimethyl-1-(methyl(((6-((4R,5S)-5-methyl-2-oxoimidazolidin-4-yl)hexyl)oxy)carbonyl)amino)pyridin-1-ium trifluoroacetate]		
